Experimental data taken from US7592023B2, “Transplant media” (Trophic Solutions LLC, priority 2000, dated 2009).

What was measured:
[1] = system: MDCK cells; assay: cytoskeletal structure (actin and tubulin antibodies, confocal fluorescence microscopy) after cold storage, MDCK cells; type: cell-based; details: three days at cold temperatures
Text: (§1) This Example describes the effect UW solution supplemented with BNP-1 on cytoskeletal structure of kidney cells. Briefly, either MDCK cells or primary kidney cell cultures were stored for three days at cold temperatures in either UW solution, UW solution supplemented with BNP-1, or DMEM. The cells were then labeled with actin and tubulin antibodies and analyzed by confocal fluorescence microscopy. […] In these primary cells, the actin and tubulin filaments maintained a coarse clumpy pattern with considerable cortical condensation near the plasma membrane and only a limited amount of fine fibrillar structure that would be considered more normal.

[2] = system: primary kidney cell cultures; assay: cytoskeletal structure (actin and tubulin antibodies, confocal fluorescence microscopy) after cold storage, primary kidney cell cultures; type: cell-based; details: three days at cold temperatures
Text: as §1

[3] = system: bacteria, fungi, and enveloped viruses; details: cited from earlier work
[4] = system: panel of organisms in stationary growth phase; details: cited from earlier work

In the case of “BNP-1: bovine defensin peptide, SEQ ID NO: 37, rlcrivvirvcr; synthesized by Multiple Peptide Systems (RLCRIVVIRVCR; listed as Bos taurus)”, the “actin and tubulin after storage” value [1] is reported as “better maintenance of actin and tubulin” and the “actin and tubulin after storage” value [2] is reported as “the tubulin and actin were better stained and more persistent”.
For “GPNP: guinea pig defensin, rrcicttrtcrfpyrrlgtcifqnrvytfcc (RRCICTTRTCRFPYRRLGTCIFQNRVYTFCC; Guinea pig cytomegalovirus)”, the “spectrum of antimicrobial activity” value [3] is given as “broad spectrum antimicrobial properties verified”.
In the case of “HNP-1: defensin isolated from human PMN's, acycripaciagerrygtciyqgrlwafcc”, the “antimicrobial properties, rank among defensins tested” value [4] is given as “most potent antimicrobial properties”.
For “rabbit NP-1: rabbit neutrophil defensin, vvcacrralclprerragfcrirgrihplccrr (VVCACRRALCLPRERRAGFCRIRGRIHPLCCRR; listed as Oryctolagus cuniculus)”, the “antimicrobial properties, rank among defensins tested” value [4] is listed as “most potent antimicrobial properties”.
